Laboratory results reported in the supplement of paper PMC10627819.

What was measured:
B. subtilis 168 [1] = assay: fitness (endpoint OD595 vs no drug) (fraction); higher = more growth
Method in brief: (§1)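 Plates with 384 wells were inoculated at OD595 0.01 using 30 µl of TSB, LB Lennox or CY, or 55 µl for S. pneumoniae. Incubation was at 37 °C, with OD595 measured every 30 min for 14 h. Fitness is the stationary-phase transition optical density over the robust mean of no-drug control wells, after first-reading background subtraction; it is capped at 1.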

S. aureus DSM 20231 [2] = assay: as above
Method in brief: as §1

S. aureus Newman [3] = assay: Bliss interaction score (quartile over a dose matrix) (fitness difference); higher = more antagonism (negative = synergy)
Method in brief: (§2)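 Growth was read as OD595 when cultures entered stationary phase, and each value was divided by the plate's robust no-drug mean and capped at 1. This normalised ratio is the fitness value, and fitness for each single drug came from the combination data. The Bliss score subtracts the expected fitness, taken as the product, from the observed fitness and is given as quartiles across technical, biological and donor/recipient replicates.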

B. subtilis 168 [4] = assay: as above
Method in brief: as §2

S. pneumoniae D39V [5] = assay: as above
Method in brief: as §2

S. aureus DSM 20231 [6] = assay: as above
Method in brief: as §2

S. aureus Newman [7] = assay: fitness (endpoint OD595 vs no drug) (fraction); higher = more growth
Method in brief: as §1

S. pneumoniae D39V [8] = assay: as above
Method in brief: as §1
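Throughout, for Bliss interaction score (quartile over a dose matrix): first quartile when negative (synergy) and third quartile when positive (antagonism).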

Cn1c2cccc(=O)c-2nc2ccccc21 [Pyocyanin] + COc1cc(Cc2cnc(N)nc2N)cc(OC)c1OC [Trimethoprim]
fitness, one replicate
Conditions	partner 0.1 µg/mL	partner 0.125 µg/mL	partner 0.2 µg/mL	partner 0.4 µg/mL	partner 1 µg/mL	partner 2 µg/mL
B. subtilis 168 [1], first compound 1.25 µg/mL	0.744	0.7	0.672	0.502	0.354	0.3
B. subtilis 168 [1], first compound 2.5 µg/mL	0.758	0.598	0.669	0.414	0.297	0.273
B. subtilis 168 [1], first compound 5 µg/mL	0.501	0.563	0.429	0.242	0.191	0.211
S. aureus DSM 20231 [2], first compound 1.25 µg/mL	–	0.659	–	–	–	–
S. aureus DSM 20231 [2], first compound 2.5 µg/mL	–	0.738	–	–	–	–
S. aureus DSM 20231 [2], first compound 5 µg/mL	–	0.577	–	–	–	–

fitness
Conditions	first compound 1.25 µg/mL	first compound 2.5 µg/mL	first compound 5 µg/mL
B. subtilis 168 [1], partner 0.25 µg/mL	0.653	0.594	–
B. subtilis 168 [1], partner 0.5 µg/mL	0.521	0.439	0.35
S. aureus DSM 20231 [2], partner 0.25 µg/mL	0.553	0.555	0.5
S. aureus DSM 20231 [2], partner 0.5 µg/mL	0.316	0.497	0.442
S. aureus DSM 20231 [2], partner 1 µg/mL	0.0451	0.053	0.0904

Conditions	Bliss interaction score
B. subtilis 168 [4]	0.0421
S. aureus DSM 20231 [6]	0.163
S. aureus Newman [3]	0.123
S. pneumoniae D39V [5]	0.117

CN(N=O)C(=O)N[C@@H](C=O)[C@@H](O)[C@H](O)[C@H](O)CO [Streptozotocin] + CN(C)c1cc(NC(=O)CNC(C)(C)C)c(O)c2c1C[C@H]1C[C@H]3[C@H](N(C)C)C(O)=C(C(N)=O)C(=O)[C@@]3(O)C(O)=C1C2=O [Tigecycline]
fitness
Conditions	first compound 0.15 µg/mL	first compound 0.3 µg/mL	first compound 0.6 µg/mL	first compound 1.2 µg/mL	first compound 2.4 µg/mL	first compound 4.8 µg/mL
S. aureus Newman [7], partner 0.039 µg/mL	0.829	0.711	0.555	–	–	–
S. aureus Newman [7], partner 0.078 µg/mL	0.837	0.685	0.504	–	–	–
S. aureus Newman [7], partner 0.156 µg/mL	0.904	0.711	0.511	–	–	–
S. pneumoniae D39V [8], partner 0.65 µg/mL	–	–	–	0.934	0.965	0.973
S. pneumoniae D39V [8], partner 1.3 µg/mL	–	–	–	0.952	0.987	0.939
S. pneumoniae D39V [8], partner 2.6 µg/mL	–	–	–	0.964	0.948	0.956

fitness, B. subtilis 168 [1], one replicate
Conditions	partner 0.039 µg/mL	partner 0.078 µg/mL	partner 0.125 µg/mL	partner 0.156 µg/mL	partner 0.25 µg/mL	partner 0.5 µg/mL
first compound 0.15 µg/mL	0.936	0.975	0.958	0.877	0.892	0.921
first compound 0.3 µg/mL	≥ 1	≥ 1	0.995	0.907	0.836	0.86
first compound 0.6 µg/mL	≥ 1	0.956	0.961	0.99	0.83	0.904

Conditions	Bliss interaction score
B. subtilis 168 [4]	-0.0405
S. aureus DSM 20231 [6]	0.0681
S. aureus Newman [3]	0.0493
S. pneumoniae D39V [5]	0.0675

CN(N=O)C(=O)N[C@@H](C=O)[C@@H](O)[C@H](O)[C@H](O)CO [Streptozotocin] + COc1cc(Cc2cnc(N)nc2N)cc(OC)c1OC [Trimethoprim]
fitness, one replicate
Conditions	first compound 0.15 µg/mL	first compound 0.3 µg/mL	first compound 0.6 µg/mL
B. subtilis 168 [1], partner 0.1 µg/mL	0.903	0.871	0.9
B. subtilis 168 [1], partner 0.125 µg/mL	0.748	0.728	0.731
B. subtilis 168 [1], partner 0.2 µg/mL	0.758	0.703	0.805
B. subtilis 168 [1], partner 0.4 µg/mL	0.523	0.536	0.521
S. aureus DSM 20231 [2], partner 0.125 µg/mL	0.645	0.666	0.602

fitness
Conditions	first compound 0.15 µg/mL	first compound 0.3 µg/mL	first compound 0.6 µg/mL
B. subtilis 168 [1], partner 0.5 µg/mL	0.51	0.496	0.501
S. aureus DSM 20231 [2], partner 0.25 µg/mL	0.549	0.557	0.493
S. aureus DSM 20231 [2], partner 0.5 µg/mL	0.0352	0.0171	0.0159
S. aureus DSM 20231 [2], partner 1 µg/mL	0.0265	0.0265	0.0187

Conditions	Bliss interaction score
B. subtilis 168 [4]	0.062
S. aureus DSM 20231 [6]	-0.0675
S. aureus Newman [3]	-0.12
S. pneumoniae D39V [5]	-0.125

Cc1cc(NS(=O)(=O)c2ccc(N)cc2)no1 [Sulfamethoxazol] + CN(C)c1cc(NC(=O)CNC(C)(C)C)c(O)c2c1C[C@H]1C[C@H]3[C@H](N(C)C)C(O)=C(C(N)=O)C(=O)[C@@]3(O)C(O)=C1C2=O [Tigecycline]
fitness
Conditions	first compound 1 µg/mL	first compound 2 µg/mL	first compound 4 µg/mL
B. subtilis 168 [1], partner 0.039 µg/mL	0.917	0.92	≥ 1
B. subtilis 168 [1], partner 0.078 µg/mL	0.903	0.921	0.97
B. subtilis 168 [1], partner 0.156 µg/mL	0.911	0.897	0.982
S. aureus Newman [7], partner 0.039 µg/mL	0.991	0.996	≥ 1
S. aureus Newman [7], partner 0.078 µg/mL	0.982	0.999	0.966
S. aureus Newman [7], partner 0.156 µg/mL	0.986	0.983	≥ 1
S. pneumoniae D39V [8], partner 0.65 µg/mL	0.944	0.961	0.937
S. pneumoniae D39V [8], partner 1.3 µg/mL	0.952	0.932	0.937
S. pneumoniae D39V [8], partner 2.6 µg/mL	0.936	0.937	0.95

fitness, one replicate
Conditions	partner 0.039 µg/mL	partner 0.078 µg/mL	partner 0.125 µg/mL	partner 0.156 µg/mL	partner 0.25 µg/mL	partner 0.5 µg/mL
B. subtilis 168 [1], first compound 0.5 µg/mL	≥ 1	0.989	–	0.959	–	–
B. subtilis 168 [1], first compound 1 µg/mL	–	–	0.963	–	0.923	0.903
B. subtilis 168 [1], first compound 2 µg/mL	–	–	0.942	–	0.88	0.859
B. subtilis 168 [1], first compound 4 µg/mL	–	–	0.922	–	0.899	0.925
S. aureus Newman [7], first compound 8 µg/mL	0.856	0.865	–	0.934	–	–

Conditions	Bliss interaction score
B. subtilis 168 [4]	0.0319
S. aureus DSM 20231 [6]	0.108
S. aureus Newman [3]	0.0399
S. pneumoniae D39V [5]	0.0567
